Measured values reported in patent publication US12497460B2, “Anti-MSR1 antibodies and methods of use thereof” (REGENERON PHARMACEUTICALS, INC., priority 2018, dated 2025).
Converted amounts (≈) assume the structure as drawn. “Also recorded” adds a separate entry of the source.

Legend:
[1] = Solubility in water of linker-payloads
[2] = test system: S. aureus NRS384; assay: Broth minimum inhibitory concentration (MIC) assay; format: cell-based; conditions: S. aureus NRS384, TSB, 24h, 37° C.
Procedure: To test the efficacy of rifamycin analogs of the disclosure in vitro, a broth growth inhibition assay was developed. For the assay, S. aureus NRS384 was grown in Tryptic Soy Broth (TSB) overnight, then sub-cultured 1:50 in fresh TSB and grown for an additional two hours. The culture was then pelleted via centrifugation and washed twice in PBS. The culture was then diluted to 1×10^4 cfu/mL in TSB and 50 μL of the suspension was added per well to a 96 well microtiter dish in duplicate. A dilution series of the indicated antibiotic (an analog according to the disclosure or a previously known analog Rifampicin) was added 1:1 for a final starting concentration of 1×10^−5 M with 1:3 dilutions.

[3] = test system: intracellular S. aureus NRS384 in THP-1 macrophages; assay: Intracellular S. aureus killing assay with rifamycin analogs (Example 44); format: cell-based; conditions: for Intracellular killing MIC: lowest concentration that resulted in intracellular S. aureus eradication, THP-1 macrophages; for intracellular S. aureus killing (in words): infected THP-1 macrophages, 2h treatment, compared to rifampicin
Procedure: The rifamycin analog compounds' activity against S. aureus was tested in an intracellular “killing” assay.
THP-1 monocytic cell line was grown in media (RMPI+10% FBS+1% Penicillin/Streptomycin), then seeded at a density of 1e5 cells/well in a 96 well plate and differentiated into macrophages for three days prior to infection using 200 nM PMA. An overnight culture of S. aureus NRS384 was grown in RPMI, washed twice with PBS and resuspended at 1e7 cfu/mL in PBS. THP-1 were washed with warm media (RMPI without FBS) to remove the Penicillin/Streptomycin and then infected with the S. aureus suspension at a multiplicity of infection of 10:1 (S. aureus: macrophages). Plates were spun at 300×g for 5 minutes to synchronize adhesion of the bacteria, then incubated at 37° C. for 2 hours. Free-floating bacteria were removed by washing 2× with warm media and remaining extracellular S. aureus were killed by addition of media containing gentamicin (50 ug/mL). After 1h, media was aspirated and the indicated compound was added to infected macrophages in media containing 50 μg/mL gentamicin to prevent extracellular growth of S. aureus. After 2h, plates were washed 2× with warm RPMI without FBS, and 100 ul of THP-1 lysis buffer (0.1% Triton in PBS) was added to each well. S. aureus survival was enumerated by colony forming units through serial dilution and plating onto TSA.

SMILES	solubility [1] [µg/mL]	S. aureus Broth MIC [2] [nM]	Intracellular killing MIC [3]	intracellular S. aureus killing (in words) [3]
CCCC1O[C@@H]2C[C@H]3[C@@H]4C[C@H](F)C5=CC(=O)C=C[C@]5(C)[C@@]4(F)[C@@H](O)C[C@]3(C)[C@]2(C(=O)CNC(=O)OCc2ccc(NC(=O)[C@H](CCCNC(N)=O)NC(=O)[C@@H](NC(=O)CCOCCOCCOCCOCCNC(=O)CCC(=O)N3Cc4ccccc4C#Cc4ccccc43)C(C)C)cc2)O1 (stereo partly shown) [LP13]	20 (≈ 14.2 µM)	–	–	–
CCCC1O[C@@H]2C[C@H]3[C@@H]4C[C@H](F)C5=CC(=O)C=C[C@]5(C)[C@@]4(F)[C@@H](O)C[C@]3(C)C2(C(=O)CNC(=O)OCc2ccc(NC(=O)[C@H](CCCNC(N)=O)NC(=O)[C@@H](NC(=O)[C@@H](CCCCNC(=O)COC3CCCCCc4c3nnn4CC3OC4OC5C(CO)OC(OC6C(CO)OC(OC7C(CO)OC(OC8C(CO)OC(OC9C(CO)OC(OC3C(O)C4O)C(O)C9O)C(O)C8O)C(O)C7O)C(O)C6O)C(O)C5O)NC(=O)CCOCCOCCOCCOCCNC(=O)CCC(=O)N3Cc4ccccc4C#Cc4ccccc43)C(C)C)cc2)O1 (stereo partly shown) [LP14]	26 (≈ 9.64 µM)	–	–	–
CO[C@H]1/C=C/O[C@@]2(C)Oc3c(C)c(O)c4c(=O)c(c5n(C)c6cc(O)ccc6nc-5c4c3C2=O)NC(=O)/C(C)=C\C=C\[C@H](C)[C@H](O)[C@@H](C)[C@@H](O)[C@@H](C)[C@H](OC(C)=O)[C@@H]1C [R1d, Rifamycin 4-OH-Phenol N-Methyl Analogs]	–	370	>1.0E−06	–
CO[C@H]1/C=C/O[C@@]2(C)Oc3c(C)c(O)c4c(=O)c(c5oc6cc(OC7CCNCC7)ccc6nc-5c4c3C2=O)NC(=O)/C(C)=C\C=C\[C@H](C)[C@H](O)[C@@H](C)[C@@H](O)[C@@H](C)[C@H](OC(C)=O)[C@@H]1C [R14]	–	41	1.0E−06	increased intracellular S. aureus killing capacity compared to rifampicin
CO[C@H]1/C=C/O[C@@]2(C)Oc3c(C)c(O)c4c(=O)c(c5oc6cc(OCCN(C)C)ccc6nc-5c4c3C2=O)NC(=O)/C(C)=C\C=C\[C@H](C)[C@H](O)[C@@H](C)[C@@H](O)[C@@H](C)[C@H](OC(C)=O)[C@@H]1C [R16a]	–	1.5	4.0E−08	increased intracellular S. aureus killing capacity compared to rifampicin; also recorded: highest activity
